The target in the test is cAMP-specific 3',5'-cyclic phosphodiesterase 4B (Homo sapiens, UniProt Q07343). The test can be described thus: In vitro PDE4B Enzyme Activity Detection Assay. The method, then:
1. Experimental MaterialsName Brand Cat No.PDE4B1 enzyme BPS 60041Trequinsin TOCRIS 2337/10IMAP FP IPP Explorer Kit Molecular Device R8124FAM-cAMP Molecular Device R7506OptiPlate -384 F PerkinElmer 6007279black assay plate 384 well Echo plate Labcyte PP-02002. Experimental StepsFirst, a stock solution of the compound at a concentration of 10 mM was prepared in a test tube with 90% DMSO (10% water), and it was used to prepare a series of dilutions with a dilution factor of 1:5 and final concentrations starting from 100 μM to as low as 0.05 nM. 0.2 μl of the compound solution was transferred into a 384-well reaction plate, and 0.2 μl of 100% DMSO was transferred into both the negative and positive controls. Then, 10 μl of 2 PDE4B1 enzyme solution (making a final concentration of 0.04 nM) was added to each well, and 10 μl of 1 reaction buffer instead of the enzyme solution was added to the zero enzyme activity control wells. The plate was centrifuged at 1,000 rpm for 1 min and incubated at room temperature for 15 min. […] After the incubation, the RLU data were read and the inhibition rate was calculated. The IC50 value was calculated from the concentration-inhibition fitted curve, wherein the maximum value refers to the reading of the DMSO control and the minimum value refers to the reading of the zero enzyme activity control.

The structures appear in SMILES notation. pIC50: −log10 of the molar value.

cAMP-specific 3',5'-cyclic phosphodiesterase 4B, sequence (Q07343 whole entry): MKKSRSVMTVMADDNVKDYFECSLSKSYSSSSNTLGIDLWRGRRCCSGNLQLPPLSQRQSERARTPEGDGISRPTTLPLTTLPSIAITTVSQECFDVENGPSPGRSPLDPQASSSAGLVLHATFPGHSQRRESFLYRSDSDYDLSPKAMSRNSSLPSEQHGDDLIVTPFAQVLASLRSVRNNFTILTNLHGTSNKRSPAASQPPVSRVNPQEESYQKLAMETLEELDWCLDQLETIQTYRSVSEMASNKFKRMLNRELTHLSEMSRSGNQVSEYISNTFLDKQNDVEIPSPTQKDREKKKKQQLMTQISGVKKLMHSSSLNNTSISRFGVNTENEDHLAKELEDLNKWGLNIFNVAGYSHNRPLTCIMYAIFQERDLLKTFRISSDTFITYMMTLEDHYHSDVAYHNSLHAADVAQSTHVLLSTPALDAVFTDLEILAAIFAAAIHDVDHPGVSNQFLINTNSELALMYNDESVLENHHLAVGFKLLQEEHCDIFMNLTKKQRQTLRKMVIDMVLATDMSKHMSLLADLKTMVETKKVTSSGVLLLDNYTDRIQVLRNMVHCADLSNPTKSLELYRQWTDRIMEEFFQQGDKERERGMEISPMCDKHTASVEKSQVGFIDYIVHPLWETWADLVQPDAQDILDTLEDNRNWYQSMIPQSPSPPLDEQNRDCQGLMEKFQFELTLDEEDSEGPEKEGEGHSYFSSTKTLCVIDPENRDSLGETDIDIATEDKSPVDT

Compound `COc1ccc(-c2cncc([C@H]3COB(O)C3)n2)c2c1OC(C)(C)CC2` [US20240083921, Compound 11-2] gave a pIC50 of 8.44.
In turn, `COc1ccc(-c2cncc(C3COB(O)C3)c2)c2c1OC(C)(C)CO2` (configuration not stated) [US20240083921, Compound 8] had a pIC50 of 9.66.

Source of the values: BindingDB's records for patent US20240083921 (Reistone Biopharma Company, 2024).
